# Measured values taken from patent US20230391808A1, “PHOSPHAPHENALENE-GOLD(I) COMPLEXES AS CHEMOTHERAPEUTIC AGENTS AGAINST GLIOBLASTOMA” (priority 2020, published 2023).
# How the values were obtained:
# NCH82 = assay: Crystal violet proliferation assay, NCH82; assay type: cell-based, human; details: glioblastoma cell line, 48 h exposure, mean of three biological replicates ± standard deviation
# NCH89 = assay: Crystal violet proliferation assay, NCH89; assay type: cell-based, human; details: glioblastoma cell line, 48 h exposure, mean of three biological replicates ± standard deviation
# NCH149 = assay: Crystal violet proliferation assay, NCH149; assay type: cell-based, human; details: glioblastoma cell line, 48 h exposure, mean of three biological replicates ± standard deviation
# Experimental: In order to investigate the role of the fused phosphaphenalene ring in the bio-activity of the drug, the ability of Compound 5 to inhibit cell proliferation in the glioblastoma cell lines NCH82, NCH89 and NCH149 was examined. For this purpose, cells were incubated with increasing concentrations of Compound 5 and cell proliferation was evaluated by crystal violet assay.
# The effect of different compounds on cell growth was evaluated by the crystal violet method as described earlier (J. P. Rigalli et al., Cancer Lett. 2016, 376, 165-172). Briefly, cells were seeded in 96-well plates (10,000 cells/well). After 24 h cell culture medium was replaced by fresh compound-containing medium (ten different concentrations (0.01 to 200 μM μM)). After 48 h of exposure extent of cell proliferation inhibition was determined by crystal violet staining of surviving cells. Therefore, cells were washed and stained with 0.5% crystal violet solution (2.5 g in 100 ml methanol, diluted with 400 ml aqua bidest) for 15 min, rinsed and dried overnight.
# (§1) Next, crystal violet was solubilized in methanol and absorbance was measured at 555 nm. The proliferative index was calculated as crystal violet absorption intensity as percentage relative to baseline (no cells) as described before (T. Peters et al., Naunyn Schmiedebergs Arch Pharmacol. 2006, 372, 291-299.) Cell survival plotted against the decimal logarithm of drug concentration in μM (c (of compound x) in μM) and fitted to a sigmoidal dose-response curve using Graph Pad Prism 7.02 (GraphPad Software, San Diego, USA).
# NCH517 [1] = assay: Crystal violet proliferation assay, brain metastasis NCH517; assay type: cell-based, human; details: brain metastasis cell line, 48 h, mean of three biological replicates ± standard deviation
# From the text: (§2) Based on the remarkable results obtained with Compound 6, its anti-proliferative effects on a series of different cancer cell lines was investigated. To that end, in addition to the three glioblastoma cell lines described above, Compound 6 was employed on eleven other cancer cell lines including brain metastasis (NCH517, NCH604a and NCH466), meningioma (NCH93 and BenMen-1), IDH-mutant glioma (NCH511b, NCH1618 and NCH3763), and head and neck cancer cell lines (HNO210, HNO199 and HNO97) (Table 3).
# (§3) The effect of different compounds on cell growth was evaluated by the crystal violet method as described earlier (J. P. Rigalli et al., Cancer Lett. 2016, 376, 165-172). Briefly, cells were seeded in 96-well plates (10,000 cells/well). […] After 48 h of exposure extent of cell proliferation inhibition was determined by crystal violet staining of surviving cells. […]
# as §1
# NCH604a [2] = assay: Crystal violet proliferation assay, brain metastasis NCH604a; assay type: cell-based, human; details: brain metastasis cell line, 48 h, mean of three biological replicates ± standard deviation
# From the text: as §2, §3, §1
# NCH466 [3] = assay: Crystal violet proliferation assay, brain metastasis NCH466; assay type: cell-based, human; details: brain metastasis cell line, 48 h, mean of three biological replicates ± standard deviation
# From the text: as §2, §3, §1
# NCH93 [4] = assay: Crystal violet proliferation assay, meningioma NCH93; assay type: cell-based, human; details: meningioma cell line, 48 h, mean of three biological replicates ± standard deviation
# From the text: as §2, §3, §1
# BenMen-1 = assay: Crystal violet proliferation assay, meningioma BenMen-1; assay type: cell-based, human; details: meningioma cell line, 48 h, mean of three biological replicates ± standard deviation
# From the text: as §2, §3, §1
# NCH551b = assay: CellTiter-Glo proliferation assay, IDH-mutant glioma NCH551b; assay type: cell-based, human; details: IDH-mutant glioma cell line, 48 h, mean of three biological replicates ± standard deviation
# From the text: as §2
# (§4) To assess the effect of Compound 4 and Compound 6 on cell growth of glioma stem-like cells (GSC) and GSC lines derived from IDH-mutant gliomas, cellular ATP levels were measured using the luminescent CellTiter-Glo Assay (Promega Corp, Madison, WI). GCS spheroid cultures were gently dissociated and cell suspensions were seeded in 96-well tissue culture plates (8,000 cells/well, 100 μl/well). After a 24-hour incubation period without any compound freshly reconstituted compound in ten final concentrations ranging from 0.01 μM to 200 μM were added and cells were incubated for 48 hours.
# (§5) Before measurement, the plate was equilibrated at room temperature for 30 minutes. […] Next, the plate was incubated for 10 minutes at room temperature and finally, the luminescence was measured. […]
# NCH1618 = assay: CellTiter-Glo proliferation assay, IDH-mutant glioma NCH1618; assay type: cell-based, human; details: IDH-mutant glioma cell line, 48 h, mean of three biological replicates ± standard deviation
# From the text: as §2, §4, §5
# NCH3763 = assay: CellTiter-Glo proliferation assay, IDH-mutant glioma NCH3763; assay type: cell-based, human; details: IDH-mutant glioma cell line, 48 h, mean of three biological replicates ± standard deviation
# From the text: as §2, §4, §5
# HNO210 = assay: Crystal violet proliferation assay, head and neck cancer HNO210; assay type: cell-based, human; details: head and neck cancer cell line, 48 h, mean of three biological replicates ± standard deviation
# From the text: as §2, §3, §1
# HNO199 = assay: Crystal violet proliferation assay, head and neck cancer HNO199; assay type: cell-based, human; details: head and neck cancer cell line, 48 h, mean of three biological replicates ± standard deviation
# From the text: as §2, §3, §1
# HNO97 = assay: Crystal violet proliferation assay, head and neck cancer HNO97; assay type: cell-based, human; details: head and neck cancer cell line, 48 h, mean of three biological replicates ± standard deviation
# From the text: as §2, §3, §1
# NCH466 [5] = assay: Annexin V apoptosis assay (flow cytometry), NCH466; assay type: cell-based, human; details: drug concentration of 2 μM, 48 hours
# Experimental: (§6) For this purpose, cells were incubated with different concentrations of Compound 6 for 48 hours and subsequently analyzed by flow cytometry (see representative example in FIG. 4A). Annexin V and propidium iodide (PI) were used as indicators for apoptosis/necrosis.
# (§7) To quantitate the extent of apoptosis and necrosis, either annexin V staining combined with DAPI or double labeling of cells with annexin V and propidium iodide (PI) was used. The double labeling allows the distinction between apoptotic (annexin V^pos/DAPI^neg or annexin V^pos/PI^neg) and necrotic (annexin V^pos/DAPI^pos or annexin V^pos/PI^pos) cells. Cells were seeded in a 6-well plate (2.5×10^5/well) and left to attach overnight. […]
# (§8) After treatment supernatant containing apoptotic and necrotic cells was collected, cells were harvested, washed, and up to 1×10^6 cells were incubated with FITC-conjugated annexin V antibody diluted in 1:1000 DAPI solution following manufactures instructions (#51-65874X, BD Bioscienes, Franklin Lakes, USA) or incubated with FITC-conjugated annexin V antibody and PI for 15 min following manufacturer instructions (#51-65974X, BD Biosciences, Franklin Lakes, USA). Cells were acquired by flow cytometry using a BD LSRII flow cytometer (BD Bioscienes, Franklin Lakes, USA) and analyzed by FlowJo Software v7.6.5 (TreeStar, Ahland, USA).
# NCH517 [6] = assay: Annexin V apoptosis assay (flow cytometry), NCH517; assay type: cell-based, human; details: drug concentration of 2 μM, 48 hours
# Experimental: as §6, §7, §8
# NCH604a [7] = assay: Annexin V apoptosis assay (flow cytometry), NCH604a; assay type: cell-based, human; details: drug concentration of 2 μM, 48 hours
# Experimental: as §6, §7, §8
# NCH93 [8] = assay: Annexin V apoptosis assay (flow cytometry), NCH93; assay type: cell-based, human; details: drug concentration of 2 μM, 48 hours
# Experimental: as §6, §7, §8
# [9] = test system: head and neck cancer cell lines; assay: Annexin V apoptosis assay (flow cytometry), head and neck cancer cell lines; assay type: cell-based, human; details: drug concentration of 5 μM, 48 hours
# Experimental: as §6, §7, §8
# [10] = test system: cancer cell lines derived from brain metastases, meningiomas, IDH-mutant gliomas and head and neck cancers; assay: Annexin V apoptosis assay (flow cytometry), all analyzed cell lines; assay type: cell-based, human; details: 48 hours (FIG. 4)
# Experimental: as §6, §7, §8
# NCH82 cell line = assay: Drug uptake kinetics by fluorescence microscopy; assay type: cell-based, human
# Experimental: Based on the observed high bio-activity and the spectroscopic properties of Compound 6 as an example of the present invention, the drug uptake kinetics was investigated in NCH82 cell line. To this end, cells were treated with increasing concentrations of Compound 6 and its drug uptake was monitored with a fluorescence microscope (excitation/emission 350/455 nm; data not shown).
# To measure the uptake kinetics of compound 6 by NCH82 cells, they were seeded in a 96-well plate (5,000 cells/well) and after 24 h, cell culture medium was replaced with compound 6 or DMSO-containing medium (0.1, 1 and 10 μM). Images were taken with a fluorescence microscope (Olympus, Shinjuku, Japan) at 1 h, 24 h and 48 h after treatment initiation. A laser with an excitation/emission spectrum of 350/455 nm was used and images were taken with a 10× objective.
# [11] = Stability under controlled thermodynamic conditions upon repetitive cycles of illumination; assay type: physicochemical; details: data not shown
# cancer cell lines = assay: Anti-proliferative effects on a series of different cancer cell lines; assay type: cell-based, human; details: summary over all cell lines of Table 3; read-out: mean IC50 values in some cell lines
# From the text: as §2, §3
# as §1, with “USA). […]” for “USA).”
structure (smiles),measurement,setting,value
CC(=O)OC[C@H]1O[C@@H]([S][Au-][P+]2(c3ccccc3)c3ccn(C)c3-c3cccc4cccc2c34)[C@H](OC(C)=O)[C@@H](OC(C)=O)[C@@H]1OC(C)=O (stereo partly drawn) [Compound 6],IC50,NCH82,730 nM
same,IC50,NCH89,4 µM
same,IC50,NCH149,870 nM
same,IC50,NCH517 [1],1600 ± 300 nM
same,IC50,NCH604a [2],1860 ± 140 nM
same,IC50,NCH466 [3],1010 ± 20 nM
same,IC50,NCH93 [4],1350 ± 90 nM
same,IC50,BenMen-1,1320 ± 120 nM
same,IC50,NCH551b,1230 ± 250 nM
same,IC50,NCH1618,880 nM
same,IC50,NCH3763,5.21 ± 0.31 µM
same,IC50,HNO210,1100 ± 80 nM
same,IC50,HNO199,2650 ± 250 nM
same,IC50,HNO97,5.51 ± 1.04 µM
same,"cells in apoptosis/necrosis, NCH466",NCH466 [5],more than 50%
same,"cells in apoptosis/necrosis, NCH517",NCH517 [6],more than 50%
same,"cells in apoptosis/necrosis, NCH604a",NCH604a [7],more than 50%
same,"cells in apoptosis/necrosis, NCH93",NCH93 [8],more than 50%
same,"cells in apoptosis/necrosis, head and neck cancer cell lines",[9],more than 50%
same,induction of apoptosis/necrosis in all analyzed cell lines,[10],able to induce apoptosis/necrosis
same,time after treatment initiation at which dead cells were first observed,NCH82 cell line; 0.1 μM,48 h
same,time after which cell death could be observed,NCH82 cell line; 1 μM,24 h
same,stability upon repetitive cycles of illumination,[11],very high stability
same,IC50,cancer cell lines,~1500 nM
